Results reported in patent US7544666B2, “NAP derivatives” (Industrial Technology Research Institute, priority 2005, dated 2009).

Assays:
Caco-2 cell monolayer = test: Permeation to Caco-2 cell monolayer; format: in vitro ADME, human; parameters: unit not given here; settings: 4-hour incubation, initial concentration 500 μM in upper layer
Experimental: The permeation of NAP and the NAP derivatives was examined using the Caco-2 cell system. Caco-2 cells (1×10^5 cells) were seeded into the polycarbonate film on the upper layer of a 12-well Transwell and incubated at 37° C. for 18 to 26 days. The TEER of the Caco cell monolayer was measured over 350 Ω×cm^2. NAP and the NAP derivatives in the HBSS were added into the upper layer of the Caco-2 cell-seeded Transwell. After 4-hour incubation, the concentration of NAP and the NAP derivatives in the upper and lower layers was measured and analyzed in comparison with the initial concentration (500 μM) by reverse phase HPLC at 210 nm.

[1] = Stability in Hanks' balanced salt solution (HBSS); format: physicochemical; settings: 37° C., relative to initial conc. in HBSS = 100.00
Experimental: (§1) The stability of the NAP derivatives prepared by EXAMPLE 1 was measured with the system of human colon cancer cell, Caco-2 cell. Caco-2 cells (1×10^5 cells) were first seeded into a polycarbonate film on the upper layer of a 12-well Transwell and incubated for 18 to 26 days at 37° C. The TEER of the Caco-2 cell monolayer was measured over 350 Ω×cm^2. The stability of the NAP derivatives in the Hanks' balanced salt solutions (HBSS) was measured by the concentration changes of NAP and the NAP derivatives incubated in the HBSS at 37° C. for 4 hours. The stability of the NAP derivatives in the Caco-2 cell system was measured by the procedure described below. NAP and the NAP derivatives in the HBSS were added into the upper layer of the Caco-2 cell-seeded Transwell. After 4-hour incubation, the concentration of NAP and the NAP derivatives in the upper and lower layers was measured and analyzed in comparison with the initial concentration (500 μM) by reverse HPLC at 210 nm.

Caco-2 cell = test: Stability in the Caco-2 cell system; format: in vitro ADME, human; settings: 4-hour incubation in Caco-2 Transwell; relative to initial conc. = 100.00 (500 μM)
Experimental: as §1

[2] = Pharmacokinetics after single subcutaneous dose in rats; format: in vivo; settings: rat, 1 mg/kg subcutaneous
Experimental: A single dosage of NAP and the NAP derivative of BMEC-NAP0706 were subcutaneously administered to rats respectively, and blood samples were obtained at different time intervals. The blood samples were subjected to LC-MS/MS analysis to measure the concentration of NAP and the NAP derivative. A time-plasma concentration relationship was established and pharmacokinetic parameters were calculated. The procedures are described below.
Long Evans rats with body weight between 220 to 240 g were obtained from the National Laboratory Animal Center, Taiwan and caged in the laboratory animal housing in the Industrial Technology Research Institute, Taiwan. The Breeding procedure follows the “Guide for the Care and Use of Laboratory Animals” established by the Chinese Society of Laboratory Animal Sciences. The rats were kept on an alternating 12-hour light and 12-hour dark schedule with sufficient feed and water until they reached the body weight between 280 to 300 g.
Each rat was weighed before the pharmacokinetic examination to estimate its own dosage. The tested drug dissolved in PBS was formulated to achieve the amount of one dosage between 0.28 to 0.32 mL. Each rat was subcutaneously administered with 1 mg/kg of the tested drug. 0.3 mL of blood samples were collected from the saphenous vein in medial thigh of the rat before and 0.25-, 0.5-, 0.75-, 1-, 2-, 4-, 24-hour after administration. Whole blood was centrifuged under 3500 rpm for 10 min and supernatant (serum) was moved to a clean 1.5 mL eppendorf and stored at −80° C.
Sample pretreatment was as follows: The frozen serum was thawed in an ice bath. One hundred μL of the serum was moved to a clean 1.5 mL eppendorf and 10 μL of internal standard material was added. The mixture was added with 200 μL ACN and mixed again. The sample was centrifuged under 14000 rpm at 4° C. for 10 min, and the supernatant was moved to the other clean eppendorf and dried in a vacuum system at 60° C. for 30 min. The dried sample was dissolved in 900 μL ddH2O. The sample was added to a solid phase extraction column previously activated with methanol and ddH2O. After the sample passed through, the extraction column was washed with ddH2O alone and then ddH2O containing 5% ACN and 0.1% TFA. The sample was dissolved from the extraction column with ACN containing 0.1% TFA and dried under a vacuum system at 60° C. for 1 hour. The dried sample was redissolved with 100 μL of ddH2O containing 50% ACN. The sample was analyzed with HPLC-MS/MS system.
The sample analysis was as described below. 20 μL of the sample was poured into the HPLC-MS/MS system. The solvent system was applied in gradient partitioning: 90% A (H2O/ACN=98/2, 0.1% F.A.) and 10% B (H2O/ACN=20/80, 0.1% F.A.) at 0-3 min; 10% A and 90% B at 3-6.5 min; 90% A and 10% B again at 6.5-15 min. The flow rate was 0.2 mL/min. The column was ZORBAX C18, 5 μm, 2.1×50 mm (Agilent) and the detector was ABI 4000 Q Trap. Each sample was analyzed for 15 min. The results were compared with the standard calibration curve to estimate the concentration of each sample. All data was statistically analyzed with Excel or WinNonlin.

Conc. at the lover layer (Caco-2 cell monolayer)	Conc. after 4-hour in HBSS [1]	Conc. after 4-hour in Caco-2 cells (Caco-2 cell)	Molecule	also measured
0.04	101.90	29.17	H-NAPVSIPN-OH [BMEC-NAP0603, H-NAPVSIPN-OH]	–
0.33	99.88	92.58	CC[C@H](C)[C@H](NC(=O)[C@H](CO)NC(=O)[C@@H](NC(=O)[C@@H]1CCCN1C(=O)[C@H](C)NC(=O)[C@H](CC(N)=O)NC(=O)c1ccccc1)C(C)C)C(=O)N1CCC[C@H]1C(=O)N[C@@H](CCC(N)=O)C(N)=O [BMEC-NAP0801, Benzoyl-NAPVSIPQ-NH2]	–
0.12	100.39	94.18	CCCC(=O)N[C@@H](CC(N)=O)C(=O)N[C@@H](C)C(=O)N1CCC[C@H]1C(=O)N[C@H](C(=O)N[C@@H](CO)C(=O)N[C@H](C(=O)N1CCC[C@H]1C(=O)N[C@@H](CCC(N)=O)C(N)=O)[C@@H](C)CC)C(C)C [BMEC-NAP0201, Butyryl-NAPVSIPQ-NH2]	–
0.76	100.17	87.00	CC[C@H](C)[C@H](NC(=O)[C@H](CO)NC(=O)[C@@H](NC(=O)[C@@H]1CCCN1C(=O)[C@H](C)NC(=O)[C@H](CC(N)=O)NC(=O)OCC(C)C)C(C)C)C(=O)N1CCC[C@H]1C(=O)N[C@@H](CCC(N)=O)C(N)=O [BMEC-NAP0501, iBu-OCO-NAPVSIPQ-NH2]	–
0.60	99.77	85.89	CCCCOC(=O)N[C@@H](CC(N)=O)C(=O)N[C@@H](C)C(=O)N1CCC[C@H]1C(=O)N[C@H](C(=O)N[C@@H](CO)C(=O)N[C@H](C(=O)N1CCC[C@H]1C(=O)N[C@@H](CCC(N)=O)C(N)=O)[C@@H](C)CC)C(C)C [BMEC-NAP0503, nBu-OCO-NAPVSIPQ-NH2]	–
2.00	99.16	29.87	CCCCCCOC(=O)N[C@@H](CC(N)=O)C(=O)N[C@@H](C)C(=O)N1CCC[C@H]1C(=O)N[C@H](C(=O)N[C@@H](CO)C(=O)N[C@H](C(=O)N1CCC[C@H]1C(=O)N[C@@H](CCC(N)=O)C(=O)O)[C@@H](C)CC)C(C)C [BMEC-NAP0404, nHex-OCO-NAPVSIPQ-OH]	–
0.27	98.58	89.54	CC[C@H](C)[C@H](NC(=O)[C@H](CO)NC(=O)[C@@H](NC(=O)[C@@H]1CCCN1C(=O)[C@H](C)NC(=O)[C@H](CC(N)=O)NC(=O)OCc1ccccc1)C(C)C)C(=O)N1CCC[C@H]1C(=O)N[C@@H](CCC(N)=O)C(N)=O [BMEC-NAP0805, Cbz-NAPVSIPQ-NH2]	–
0.57	99.78	67.14	CC[C@H](C)[C@H](NC(=O)[C@H](CO)NC(=O)[C@@H](NC(=O)[C@@H]1CCCN1C(=O)[C@H](C)NC(=O)[C@H](CC(N)=O)NC(=O)OCC1c2ccccc2-c2ccccc21)C(C)C)C(=O)N1CCC[C@H]1C(=O)N[C@@H](CCC(N)=O)C(=O)O [BMEC-NAP0706, Fmoc-NAPVSIPQ-OH]	AUC ([2]; in vivo, sc): 104 ng·h/mL; Cmax ([2]; in vivo, sc): 101 ng/mL; Tmax ([2]; in vivo, sc): 45 min; half-life ([2]; in vivo, sc, read-out: T½ (converted)): 54.6 min; AUC relative to NAP [2]: twice that of NAP; TNAP-max [2]: 0.25 h; maximum plasma concentration relative to NAP [2]: twice that of NAP; time required to reach the highest concentration [2]: 0.25 h
0.21	100.00	72.93	CC[C@H](C)[C@H](NC(=O)[C@H](CO)NC(=O)[C@@H](NC(=O)[C@@H]1CCCN1C(=O)[C@H](C)NC(=O)[C@H](CC(N)=O)NC(=O)OCc1ccccc1)C(C)C)C(=O)N1CCC[C@H]1C(=O)N[C@@H](CCC(N)=O)C(=O)O [BMEC-NAP0705, Cbz-NAPVSIPQ-OH]	–
0.31	98.62	92.09	CC[C@H](C)[C@H](NC(=O)[C@H](CO)NC(=O)[C@@H](NC(=O)[C@@H]1CCCN1C(=O)[C@H](C)NC(=O)[C@H](CC(N)=O)NC(=O)c1cccs1)C(C)C)C(=O)N1CCC[C@H]1C(=O)N[C@@H](CCC(N)=O)C(N)=O [BMEC-NAP0804, 2-Thiophenecarbonyl-NAPVSIPQ-NH2]	–
0.24	99.88	73.69	CC[C@H](C)[C@H](NC(=O)[C@H](CO)NC(=O)[C@@H](NC(=O)[C@@H]1CCCN1C(=O)[C@H](C)NC(=O)[C@H](CC(N)=O)NC(=O)c1cccs1)C(C)C)C(=O)N1CCC[C@H]1C(=O)N[C@@H](CCC(N)=O)C(=O)O [BMEC-NAP0704, 2-Thiophenecarbonyl-NAPVSIPQ-OH]	–
0.35	100.72	94.72	CC[C@H](C)[C@@H]1NC(=O)[C@H](CO)NC(=O)[C@H](C(C)C)NC(=O)[C@@H]2CCCN2C(=O)[C@H](C)NC(=O)[C@H](CC(N)=O)NC(=O)[C@H](CCC(N)=O)NC(=O)[C@@H]2CCCN2C1=O [BMEC-NAP0301, Cyclo-(NAPVSIPQ)]	–
